Where two headings read alike, the source gives them in different places.
Experiments:
[1] = target: T1, GluA2/3 (UniProt P19491+P42263); test: Whole-cell patch clamp recordings of heteromeric GluA2/3 AMPA receptor currents and kinetics in transfected HEK293t cells; assay type: cell-based; conditions: for Amplitude (peak whole-cell current in presence of compound): 16 µM compound co-applied with agonist, HEK293t, −60 mV, pH 7.4, 22 °C; for Amplitude (peak whole-cell current in presence of compound) / A/AI (amplitude ratio, glutamate alone / with compound) / t deact (weighted deactivation time constant) / t des (weighted desensitization time constant) / Amplitude, applying glutamate alone after compound: mean ± SD; for Amplitude (peak whole-cell current in presence of compound) / A/AI (amplitude ratio, glutamate alone / with compound) / Amplitude, applying glutamate alone after compound: n = 10; for A/AI (amplitude ratio, glutamate alone / with compound): 16 µM compound; for t deact (weighted deactivation time constant): 10 mM glutamate for 1 ms; for t deact (weighted deactivation time constant) / t des (weighted desensitization time constant): with compound; for t des (weighted desensitization time constant): 10 mM glutamate for 500 ms; for Amplitude, applying glutamate alone after compound: glutamate alone after the compound; for Effect on deactivation kinetics (τdeac), in words / Effect on desensitization kinetics (τdes), in words: versus glutamate alone, one-way ANOVA
T1 construct: expressed in transfected cells; host or cells: HEK293T (HEK293) cells, transient co-transfection
T1 sequence (P19491 22-883 isoform P19491-2 limits assumed): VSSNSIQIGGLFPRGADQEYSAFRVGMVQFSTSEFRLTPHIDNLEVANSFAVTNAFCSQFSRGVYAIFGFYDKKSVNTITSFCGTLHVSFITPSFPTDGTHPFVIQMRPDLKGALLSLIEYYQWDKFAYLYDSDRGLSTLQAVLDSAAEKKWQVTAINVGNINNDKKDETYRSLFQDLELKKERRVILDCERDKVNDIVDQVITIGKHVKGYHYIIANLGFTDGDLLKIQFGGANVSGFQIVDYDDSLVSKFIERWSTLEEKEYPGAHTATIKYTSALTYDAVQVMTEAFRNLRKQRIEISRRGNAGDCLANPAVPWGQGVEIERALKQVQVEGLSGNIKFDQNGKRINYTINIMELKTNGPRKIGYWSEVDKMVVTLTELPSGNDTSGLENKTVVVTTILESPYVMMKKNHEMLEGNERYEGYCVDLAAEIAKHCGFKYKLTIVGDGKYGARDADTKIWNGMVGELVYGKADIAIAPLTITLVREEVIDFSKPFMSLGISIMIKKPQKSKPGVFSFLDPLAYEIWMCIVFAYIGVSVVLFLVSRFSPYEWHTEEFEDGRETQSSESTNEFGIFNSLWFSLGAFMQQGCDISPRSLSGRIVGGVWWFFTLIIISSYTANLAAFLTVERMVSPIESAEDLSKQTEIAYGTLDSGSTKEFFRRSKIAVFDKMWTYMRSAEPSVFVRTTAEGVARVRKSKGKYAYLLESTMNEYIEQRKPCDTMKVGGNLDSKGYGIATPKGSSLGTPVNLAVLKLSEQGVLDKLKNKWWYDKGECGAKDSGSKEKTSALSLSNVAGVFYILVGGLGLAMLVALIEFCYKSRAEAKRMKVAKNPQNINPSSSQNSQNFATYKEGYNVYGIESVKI
T1 sequence (P42263 29-894 isoform P42263-2 limits assumed): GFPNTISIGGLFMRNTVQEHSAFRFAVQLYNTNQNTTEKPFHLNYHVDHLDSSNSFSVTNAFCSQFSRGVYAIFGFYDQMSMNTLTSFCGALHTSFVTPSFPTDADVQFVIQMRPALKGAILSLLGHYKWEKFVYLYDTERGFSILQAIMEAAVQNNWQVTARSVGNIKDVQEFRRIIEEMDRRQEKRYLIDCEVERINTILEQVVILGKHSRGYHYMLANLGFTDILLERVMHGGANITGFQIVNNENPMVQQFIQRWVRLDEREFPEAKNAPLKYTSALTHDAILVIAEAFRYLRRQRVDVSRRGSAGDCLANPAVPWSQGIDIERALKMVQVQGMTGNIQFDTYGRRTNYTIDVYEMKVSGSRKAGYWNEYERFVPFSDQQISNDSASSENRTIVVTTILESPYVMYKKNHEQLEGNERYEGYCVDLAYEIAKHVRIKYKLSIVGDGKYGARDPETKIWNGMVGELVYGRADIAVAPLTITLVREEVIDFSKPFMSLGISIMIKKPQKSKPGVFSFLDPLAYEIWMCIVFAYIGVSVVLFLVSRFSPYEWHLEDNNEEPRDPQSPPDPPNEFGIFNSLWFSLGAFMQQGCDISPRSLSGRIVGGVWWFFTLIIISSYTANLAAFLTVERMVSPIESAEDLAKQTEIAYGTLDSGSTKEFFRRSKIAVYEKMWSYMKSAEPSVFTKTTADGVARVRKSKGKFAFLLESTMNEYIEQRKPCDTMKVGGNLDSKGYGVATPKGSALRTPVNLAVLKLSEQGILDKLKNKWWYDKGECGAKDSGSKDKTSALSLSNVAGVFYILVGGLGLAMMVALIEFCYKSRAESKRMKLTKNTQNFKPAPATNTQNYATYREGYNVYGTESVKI
Excerpt: (§1) The AMPA receptor subunits utilized in this study were of the flip isoform. The flip variant of the GluA2 subunit was originally provided by S. F. Heinemann (Salk Institute, La Jolla, CA, USA) in a pBlueScript plasmid. This plasmid was subsequently sub-cloned into a pRK vector to enable expression in HEK293 cells, which were sourced from Sigma, Germany. Additionally, the unedited version of GluA2 (R607Qjj, flip isoform) and enhanced green fluorescent protein (EGFP), both contained in pRK5 vectors, were generously supplied by P. H. Seeburg (Max Planck Institute for Medical Research, Heidelberg, Germany). Chemical-mediated ways induced transfection. GluA2 homomers were expressed into HEK293 cells by the co-transfection of 1 μg GluA2 plasmid with an equal amount of GFP expression vectors (1:1 ratio) into the cells. In addition, co-transfection was conducted for heteromeric GluA2/3 subunits at a ratio of 1:1.2 for optimum expression. For post-transfection experiments, cells were plated in 10% fetal calf serum and antibiotics in DMEM in Petri plates. These cultures were maintained under carefully controlled conditions—37 °C and 5% CO2 within a humidified incubator. The selection of cells for recordings was based on fluorescence intensity. Highly GFP-positive cells were identified and isolated for further analysis, ensuring precise targeting of transfected populations.
(§2) Whole-cell patch clamp recordings were performed on HEK293t cells 36–48 h after transfection. Experiments were conducted at 22 °C, maintaining a holding potential of −60 mV, using an Integrated Patch Amplifier (IPA) from Sutter Instruments (Novato, CA, USA). Data acquisition was managed with SutterPatch Software v. 1.1.1 (Sutter Instruments), employing a sampling rate of 10 kHz and setting the low-pass filter at 2 kHz. […] The external solution contained 150 mM NaCl, 2.8 mM KCl, 0.5 mM MgCl2, 2 mM CaCl2, and 10 mM HEPES, adjusted to a pH of 7.4 using NaOH. The internal pipette solution was composed of 110 mM CsF, 30 mM CsCl, 4 mM NaCl, 0.5 mM CaCl2, 10 mM trypsin-EDTA solution B (0.25%), 0.05% EDTA, and 10 mM HEPES, with the pH adjusted to 7.2 using CsOH.
(§3) A dual-barrel glass pipette (theta tube) was employed for the rapid delivery of glutamate and other solutions. The theta tube was attached to a high-speed piezoelectric solution exchange system (Automate Scientific, Berkeley, CA, USA). To assess the efficiency of solution exchange, open-tip potentials were measured by applying solutions with different ionic compositions after the patch was expelled from the pipette. The time required for a 10–90% change in the solution was generally less than […].
(§4) Data analysis was performed with Igor Pro8.04 software (Wave Metrics, Inc., Portland, OR, USA). AMPA receptor deactivation and desensitization kinetics were measured by applying 10 mM glutamate for 1 ms and 500 ms, respectively. The currents from the AMPA receptor were fitted to a double-exponential model to quantify deactivation and desensitization time constants measured from the double-exponential fits. The weighted tau (τw) is calculated as: τw = (τf × af) + (τs × as), where τf and τs are the time constants of fast and slow exponential components and af and as represent their relative amplitudes.
(§5) Data are presented as the mean ± standard deviation (SD). The total number of HEK293 cells engaged was n = 10. The experimental groups were compared to the wild type using a one-way analysis of variance (ANOVA). Statistical significance was assessed using p values: p < 0.05 (*) indicated significance, p < 0.01 (**) indicated high significance, and p < 0.001 (***) indicated very high significance. The value “ns” indicates non-significance. Concentration–response relationships were modeled using the Hill equation with the resulting combined plots via GraphPad Prism software (version 6.01, GraphPad Software). The data presented are the means from 3–4 experimental replicates. […]

[2] = target: T2, GluA2 (Rattus norvegicus, UniProt P19491); test: Whole-cell patch clamp recordings of homomeric GluA2 AMPA receptor currents and kinetics in transfected HEK293t cells; assay type: cell-based; conditions: for Amplitude (peak whole-cell current in presence of compound): 16 µM compound co-applied with agonist, HEK293t, −60 mV, pH 7.4, 22 °C; for Amplitude (peak whole-cell current in presence of compound) / A/AI (amplitude ratio, glutamate alone / with compound) / t deact (weighted deactivation time constant) / t des (weighted desensitization time constant) / Amplitude, applying glutamate alone after compound: mean ± SD; for Amplitude (peak whole-cell current in presence of compound) / A/AI (amplitude ratio, glutamate alone / with compound) / Amplitude, applying glutamate alone after compound: n = 10; for A/AI (amplitude ratio, glutamate alone / with compound): 16 µM compound; for t deact (weighted deactivation time constant): 10 mM glutamate for 1 ms; for t deact (weighted deactivation time constant) / t des (weighted desensitization time constant): with compound; for t des (weighted desensitization time constant): 10 mM glutamate for 500 ms; for Amplitude, applying glutamate alone after compound: glutamate alone after the compound; for Effect on deactivation kinetics (τdeac), in words / Effect on desensitization kinetics (τdes), in words: versus glutamate alone, one-way ANOVA
T2 construct: expressed in transfected cells; host or cells: HEK293T (HEK293) cells, transient co-transfection with a separate EGFP vector
T2 sequence (P19491 22-883 isoform P19491-2 limits assumed): as the sequence (P19491 22-883 isoform P19491-2 limits assumed) above
Excerpt: as §1, §2, §3, §4, §5

[3] = concentration–response fit, read-out: Log IC50 (converted)
[4] = inhibition of whole-cell peak current, concentration–response, Hill fit, read-out: IC50

Row | Compound | Amplitude (peak whole-cell current in presence of compound) [1] | A/AI (amplitude ratio, glutamate alone / with compound) [1] | t deact (weighted deactivation time constant) [1] | IC50 [1, 3] | Amplitude, applying glutamate alone after compound [1] | IC50 [1, 4] | Amplitude (peak whole-cell current in presence of compound) [2] | A/AI (amplitude ratio, glutamate alone / with compound) [2] | t deact (weighted deactivation time constant) [2] | IC50 [2, 3] | Amplitude, applying glutamate alone after compound [2] | IC50 [2, 4] | t des (weighted desensitization time constant) [1] | Effect on deactivation kinetics (τdeac), in words [1] | Effect on desensitization kinetics (τdes), in words [1] | t des (weighted desensitization time constant) [2] | Effect on deactivation kinetics (τdeac), in words [2] | Effect on desensitization kinetics (τdes), in words [2]
1 | Cc1onc(-c2c(Cl)cccc2Cl)c1C(=O)Nc1ccccc1 [CIC-8, 3-(2,6-dichlorophenyl)-5-methyl-N-phenylisoxazole-4-carboxamide] | 123±20 pA | 4.30±0.20 | 4.9 ± 0.3 ms | 6.31 µM | 513±99 pA | 6.3 µM | 291±22 pA | 4.36±0.19 | 4.8 ± 0.2 ms | 6.17 µM | 1235±151 pA | 6.21 µM | 1.9 ± 0.1 ms | statistically significant prolongation of τdeac | accelerated desensitization, although to a lesser degree | 1.9 ± 0.1 ms | statistically significant prolongation of τdeac | accelerated desensitization, although to a lesser degree
2 | COc1cc(NC(=O)c2c(-c3c(Cl)cccc3Cl)noc2C)cc(OC)c1OC [CIC-4, 3-(2,6-dichlorophenyl)-5-methyl-N-(3,4,5-trimethoxyphenyl)isoxazole-4-carboxamide] | 110±16 pA | 4.97±0.23 | 5.7 ± 0.3 ms | 5.37 µM | 531±89 pA | 5.4 µM | 250±22 pA | 5.0±0.23 | 5.6 ± 0.3 ms | 5.25 µM | 1220±157 pA | 5.26 µM | 1.1 ± 0.1 ms | statistically significant prolongation of τdeac | accelerated desensitization, although to a lesser degree | 1.1 ± 0.1 ms | statistically significant prolongation of τdeac | accelerated desensitization, although to a lesser degree
3 | Cc1onc(-c2c(Cl)cccc2Cl)c1C(=O)Nc1ccc(-c2ccccc2)cc1 [CIC-9, N-([1,1′-biphenyl]-4-yl)-3-(2,6-dichlorophenyl)-5-methylisoxazole-4-carboxamide] | 124±19 pA | 4.01±0.19 | 4.5 ± 0.3 ms | 6.46 µM | 484±89 pA | 6.42 µM |  | 4.10±0.18 | 4.6 ± 0.2 ms | 6.31 µM | 1226±158 pA | 6.3 µM | 2.0 ± 0.1 ms | statistically significant prolongation of τdeac | accelerated desensitization, although to a lesser degree | 2.0 ± 0.1 ms | statistically significant prolongation of τdeac | accelerated desensitization, although to a lesser degree

The remaining compounds from weak to strong by IC50 [1, 4], led by results:

Row | Amplitude (peak whole-cell current in presence of compound) [1] | A/AI (amplitude ratio, glutamate alone / with compound) [1] | t deact (weighted deactivation time constant) [1] | IC50 [1, 3] | Amplitude, applying glutamate alone after compound [1] | IC50 [1, 4] | Amplitude (peak whole-cell current in presence of compound) [2] | A/AI (amplitude ratio, glutamate alone / with compound) [2] | t deact (weighted deactivation time constant) [2] | IC50 [2, 3] | Amplitude, applying glutamate alone after compound [2] | IC50 [2, 4] | Compound | t des (weighted desensitization time constant) [1] | Effect on deactivation kinetics (τdeac), in words [1] | Effect on desensitization kinetics (τdes), in words [1] | t des (weighted desensitization time constant) [2] | Effect on deactivation kinetics (τdeac), in words [2] | Effect on desensitization kinetics (τdes), in words [2]
4 | 162±36 pA | 3.01±0.14 | 2.8 ± 0.2 ms | 7.59 µM | 478±127 pA | 7.5 µM | 417±47 pA | 3.04±0.13 | 2.7 ± 0.2 ms | 7.59 µM | 1237±195 pA | 7.54 µM | Cc1onc(-c2c(Cl)cccc2Cl)c1C(=O)Nc1ccc(C(C)(C)C)cc1 [CIC-12, N-(4-(tert-butyl)phenyl)-3-(2,6-dichlorophenyl)-5-methylisoxazole-4-carboxamide] | 2.3 ± 0.1 ms | did not elicit statistically significant changes | did not significantly alter desensitization kinetics | 2.4 ± 0.1 ms | did not elicit statistically significant changes | did not significantly alter desensitization kinetics
5 | 128±29 pA | 3.86±0.18 | 4.3 ± 0.2 ms | 6.61 µM | 482±128 pA | 6.62 µM | 328±35 pA | 3.90±0.16 | 4.4 ± 0.2 ms | 6.46 µM | 1249±188 pA | 6.51 µM | Cc1onc(-c2c(Cl)cccc2Cl)c1C(=O)Nc1ccc(OC(F)(F)F)cc1 [CIC-10, 3-(2,6-dichlorophenyl)-5-methyl-N-(4-(trifluoromethoxy)phenyl)isoxazole-4-carboxamide] | 2.5 ± 0.1 ms | statistically significant prolongation of τdeac | did not significantly alter desensitization kinetics | 2.3 ± 0.1 ms | statistically significant prolongation of τdeac | did not significantly alter desensitization kinetics
6 | 101±10 pA | 5.50±0.26 | 6.2 ± 0.3 ms | 4.9 µM | 542±66 pA | 4.92 µM | 223±15 pA | 5.60±0.27 | 6.3 ± 0.3 ms | 4.79 µM | 1216±119 pA | 4.82 µM | COc1cc(NC(=O)c2c(-c3c(Cl)cccc3Cl)noc2C)cc(OC)c1 [CIC-3, 3-(2,6-dichlorophenyl)-N-(3,5-dimethoxyphenyl)-5-methylisoxazole-4-carboxamide] | 0.9 ± 0.1 ms | statistically significant prolongation of τdeac | significantly accelerated desensitization | 0.9 ± 0.1 ms | statistically significant prolongation of τdeac | significantly accelerated desensitization
